# Measurements taken from patent US20100063047A1 (KALYPSYS, INC., priority 2008, published 2010).
# Biological target: T1, human H1 (Homo sapiens, UniProt P35367)
# T1 construct: host or cells: CHO-K1, also expressing mitochondrion-targeted aequorin
# Assay: In vitro histamine H1 receptor cell-based aequorin bioluminescence antagonist assay
# Conditions: CHO-K1 cells expressing human H1 and aequorin; histamine at EC80; read-out: H1 Antagonist EC50
# Outline: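 CHO-K1 cells stably expressing human H1 or H4 plus mitochondrial aequorin (H4 also with Gα16), loaded with 5 μM coelenterazine-h for 4 h at ~21 °C. Compounds preincubated 15 min at room temperature, then histamine at EC80 added.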
# T1 sequence (P35367 whole entry): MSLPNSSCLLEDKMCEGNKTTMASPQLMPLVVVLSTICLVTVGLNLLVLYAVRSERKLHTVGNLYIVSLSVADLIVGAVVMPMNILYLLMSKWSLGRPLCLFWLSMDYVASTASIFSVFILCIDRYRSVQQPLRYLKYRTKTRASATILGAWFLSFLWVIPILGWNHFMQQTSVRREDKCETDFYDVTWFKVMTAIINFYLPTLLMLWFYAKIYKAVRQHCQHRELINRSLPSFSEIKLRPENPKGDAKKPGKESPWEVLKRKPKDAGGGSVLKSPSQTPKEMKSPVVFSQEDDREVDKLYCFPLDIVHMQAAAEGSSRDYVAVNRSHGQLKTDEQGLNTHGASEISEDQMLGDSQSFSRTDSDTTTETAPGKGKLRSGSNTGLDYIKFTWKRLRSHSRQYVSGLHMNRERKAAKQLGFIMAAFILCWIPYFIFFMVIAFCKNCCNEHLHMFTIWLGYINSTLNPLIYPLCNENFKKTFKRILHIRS
row,EC50 [µM],Structure (SMILES)
1,> 10,"CC(=O)c1ccc(N2CCN(c3ncnc4scc(C)c34)CC2)cc1 [Example 271, 1-[4-(4-{5-methylthieno[2,3-d]pyrimidin-4-yl}piperazin-1-yl)phenyl]ethan-1-one]"
2,> 10,"Cc1csc2ncnc(NCC3CC3)c12 [Example 59, N-(cyclopropylmethyl)-5-methylthieno[2,3-d]pyrimidin-4-amine]"
3,> 10,"COC(=O)C1CCN(c2ncnc3scc(C)c23)CC1 [Example 224, methyl 1-{5-methylthieno[2,3-d]pyrimidin-4-yl}piperidine-4-carboxylate]"
4,> 10,"Cc1csc2ncnc(NC3CCC(C)CC3)c12 (stereo not shown) [Example 21, (4-Methylcyclohexyl)(5-methylthiopheno[3,2-e]pyrimidin-4-yl)amine]"
5,> 10,"CCC(C)CNc1ncnc2scc(C)c12 (stereo not shown) [Example 67, 5-methyl-N-(2-methylbutyl)thieno[2,3-d]pyrimidin-4-amine]"
6,> 10,"Cc1ccc(CNc2ncnc3scc(C)c23)cc1 [Example 100, 5-methyl-N-[(4-methylphenyl)methyl]thieno[2,3-d]pyrimidin-4-amine]"
7,> 10,"Cc1csc2ncnc(NCc3ccc(F)c(Cl)c3)c12 [Example 152, N-[(3-chloro-4-fluorophenyl)methyl]-5-methylthieno[2,3-d]pyrimidin-4-amine]"
8,> 10,"Cc1csc2ncnc(NCc3ccc(C(C)C)cc3)c12 [Example 140, 5-methyl-N-{[4-(propan-2-yl)phenyl]methyl}thieno[2,3-d]pyrimidin-4-amine]"
9,> 10,"CC(Nc1ncnc2sccc12)c1ccccc1 (stereo not shown) [Example 311, N-(1-phenylethyl)thieno[2,3-d]pyrimidin-4-amine]"
10,> 10,"Cc1csc2ncnc(NCC(C)c3ccccc3)c12 (stereo not shown) [Example 119, 5-methyl-N-(2-phenylpropyl)thieno[2,3-d]pyrimidin-4-amine]"
11,> 10,"Cc1csc2ncnc(NCCNC(=O)OC(C)(C)C)c12 [Example 154, tert-butyl N-[2-({5-methylthieno[2,3-d]pyrimidin-4-yl}amino)ethyl]carbamate]"
12,> 10,"Cc1ccc(N2CCN(c3ncnc4scc(C)c34)CC2)c(C)c1 [Example 258, 1-(2,4-dimethylphenyl)-4-{5-methylthieno[2,3-d]pyrimidin-4-yl}piperazine]"
13,> 10,"Cc1csc2ncnc(NC3CCc4ccccc43)c12 (stereo not shown) [Example 111, N-(2,3-dihydro-1H-inden-1-yl)-5-methylthieno[2,3-d]pyrimidin-4-amine]"
14,> 10,"Cc1csc2ncnc(NC3CCN(Cc4ccccc4)C3)c12 (stereo not shown) [Example 168, 1-benzyl-N-{5-methylthieno[2,3-d]pyrimidin-4-yl}pyrrolidin-3-amine]"
15,> 10,c1nc(NCc2ccc(CN3CCOCC3)cc2)c2c3c(sc2n1)CCC3 [Example 309]
16,> 10,"c1ccc(CCNc2ncnc3sccc23)cc1 [Example 290, N-phenethylthieno[2,3-d]pyrimidin-4-amine]"
